In US8278461B2, “Stable amorphous form of carvedilol dihydrogen phosphate with stabilizer” (Lupin Limited, priority 2007, dated 2012):
Like-named read-outs stand apart in the source and are kept apart here.

Legend:
[1] = amorphous form obtained by the process of Indian application 292/KOL/2007; cited from earlier work
[2] = Glass transition temperature of the amorphous form; type: physicochemical
Description: We have filed an Indian patent application 292/KOL/2007 dated 27 Feb. 2007 in Indian Patent Office on amorphous form of carvedilol dihydrogen phosphate and the process for its preparation. The amorphous form obtained by the process described in this application has glass transition temperature below 60° C. The amorphous solids in general having low glass transition temperature not only create complications during formulation but also has stability related problems on storage. The glass transition temperature is the temperature, below which the physical properties of amorphous materials vary in a manner similar to those of a crystalline phase (glassy state), and above which amorphous materials behave like liquids (rubbery state). A materials glass transition temperature is the temperature below which molecules have little relative mobility. Thus, there exist a need to develop stable amorphous form of carvedilol dihydrogen phosphate which have improved characteristics. […] The amorphous carvedilol obtained without stabiliser having glass transition temperature 55-56° C. while the stable amorphous form of the present invention has glass transition temperature in the range between 76 to 185° C. The phosphorous content of the stable amorphous form of the present invention is between 18-20% on anhydrous basis.

glass transition temperature [2]: 55-56 °C
SMILES: COc1ccccc1OCCNCC(O)COc1cccc2[nH]c3ccccc3c12.O=P(O)(O)O (centres unmarked) [carvedilol dihydrogen phosphate]
glass transition temperature [1]: below 60 °C
